Measured values: patent publication US9326973B2, “Hepatitis C virus inhibitors” (priority 2012, dated 2016)
pEC50: −log10 of the molar value.

system: HCV replicon, genotype-1a variant with glutamine 30 changed to glutamate in the NS5A protein; experiment: microbe, parasite or virus in culture; format: cell-based, HCV genotype 1a; details: HCV replicon genotype 1a Q30E (Q→E) variant; test compound titrated with an NS5A-targeting compound (BMS-790052 fixed at 200 nM); ranking of synergist activity
From the text: The NS5A synergistic inhibitory effect of test compounds can be determined using various amounts of an NS5A-targeting compound with titration of a second compound of interest. […] In one embodiment, the HCV genotype strain can be genotype 1a containing a change at amino acid 30 of the NS5A protein consisting of glutamine to glutamate. The test compound can be chosen from compounds listed above or from others present in the literature.

Row | Structure (SMILES) | Fold-Synergistic 1a (Q30E) [fold]
1 | CC(=O)N1CCC[C@H]1c1ncc(-c2ccc(-c3ccc(-c4cnc([C@@H]5CCCN5C(C)=O)[nH]4)cc3)cc2)[nH]1 [Compound S-113] | <10
2 | CC(C)(C)OC(=O)N[C@]1(C(=O)N[C@H](c2nc(-c3ccc(-c4ccc(-c5c[nH]c([C@@H](NC(=O)[C@@]6(NC(=O)OC(C)(C)C)C[C@H]6CC(F)F)C(C)(C)C)n5)cc4)cc3)c[nH]2)C(C)(C)C)C[C@H]1CC(F)F [Compound W-1] | >100
3 | Cc1cc(-c2ccc(-c3c[nH]c([C@@H](NC(=O)C4CCC(F)(F)CC4)C(C)C)n3)cc2)ccc1-c1c[nH]c([C@@H](NC(=O)C2CCC(F)(F)CC2)C(C)C)n1 [Compound N-82] | >100
4 | CN(C)C(=N[C@H](c1ncc(-c2ccc(-c3ccc(-c4cnc([C@@H](NC(=O)C5(C6(O)CCOCC6)CCC5)C(C)(C)C)[nH]4)cc3)cc2)[nH]1)C(C)(C)C)N(C)C [Compound B85] | >10
5 | CC(C)(C)[C@H](Nc1nc2ccccc2s1)c1nc(-c2ccc(-c3ccc(-c4c[nH]c([C@@H](Nc5nc6ccccc6s5)C(C)(C)C)n4)cc3)cc2)c[nH]1 [Compound W-183] | >10
6 | COC(=O)N[C@H](C(=O)N[C@H](c1ncc(-c2ccc(C#Cc3ccc(-c4cnc([C@@H](NC(=O)[C@@H](NC(=O)OC)C(C)C)C(C)C)[nH]4)cc3)cc2)[nH]1)C(C)C)C(C)C [Compound N-5] | >10
7 | CC(C)[C@H](NC(=O)C(=O)N(C(C)C)C1CC1)c1nc(-c2ccc(-c3ccc(-c4c[nH]c([C@@H](NC(=O)C(=O)N(C(C)C)C5CC5)C(C)C)n4)cc3)cc2)c[nH]1 [Compound W-55] | >100
8 | CC(C)CC(=O)NC1(c2nc(-c3ccc(-c4ccc(-c5c[nH]c(C6(NC(=O)CC(C)C)CC6)n5)cc4)cc3)c[nH]2)CC1 [Compound N-21] | <10
9 | COC(=O)N[C@H](C(=O)NC1(c2nc(-c3ccc(-c4ccc(-c5c[nH]c(C6(NC(=O)[C@@H](NC(=O)OC)C(C)C)CCCCC6)n5)cc4)cc3)c[nH]2)CCCCC1)C(C)C [Compound N-23] | <10
10 | C[C@@H]1CN(C(C)(C)C(=O)N[C@H](c2nc(-c3ccc(-c4ccc(-c5c[nH]c([C@@H](NC(=O)C(C)(C)N6C[C@@H](C)O[C@@H](C)C6)C6(C)CC6)n5)cc4)cc3)c[nH]2)C2(C)CC2)C[C@H](C)O1 [Compound W-162] | >100
11 | COc1cccc2c(C(=O)N3C(c4ncc(-c5ccc(-c6ccc(-c7cnc(C8C[C@H]9C[C@H]9N8C(=O)c8nc(Cl)cc9c(OC)cccc89)[nH]7)cc6)cc5)[nH]4)C[C@H]4C[C@H]43)nc(Cl)cc12 (stereo partly shown) [Compound P-49] | >100
12 | CC(C)(C)[C@H](NC(=O)C1CCOCC1)c1nc(-c2ccc(-c3ccc(-c4c[nH]c([C@@H](NC(=O)C5CCOCC5)C(C)(C)C)n4)cc3)cc2)c[nH]1 [Compound W-123] | >100
13 | CN(C(=O)OC(C)(C)C)C1(C(=O)N[C@H](c2nc(-c3ccc(-c4ccc(-c5c[nH]c([C@@H](NC(=O)C6(N(C)C(=O)OC(C)(C)C)CC6)C(C)(C)C)n5)cc4)cc3)c[nH]2)C(C)(C)C)CC1 [Compound L-13] | >100
14 | CC1(C(=O)N[C@H](c2nc(-c3ccc(-c4ccc(-c5c[nH]c([C@@H](NC(=O)C6(C)OCC(F)(F)CO6)C(C)(C)C)n5)cc4)cc3)c[nH]2)C(C)(C)C)OCC(F)(F)CO1 [Compound L-87] | >100
15 | O=C(c1nc2ccccc2s1)N1CCC[C@H]1c1ncc(-c2ccc(-c3ccc(-c4cnc([C@@H]5CCCN5C(=O)c5nc6ccccc6s5)[nH]4)cc3)cc2)[nH]1 [Compound S-141] | >10
16 | O=C(c1ncc(Cl)c2ccccc12)N1CCC[C@H]1c1ncc(-c2ccc(-c3ccc(-c4cnc([C@@H]5CCCN5C(=O)c5ncc(Cl)c6ccccc56)[nH]4)cc3)cc2)[nH]1 [Compound S-200] | >100
17 | CC(C)[C@H](NC(=O)[C@@]1(C)CCCCO1)c1nc(-c2ccc(-c3ccc(-c4c[nH]c([C@@H](NC(=O)[C@@]5(C)CCCCO5)C(C)C)n4)cc3)cc2)c[nH]1 [Compound P-184] | >100
18 | CC(C)(C)[C@H](NC(=O)[C@H](O)C(F)(F)F)c1nc(-c2ccc(-c3ccc(-c4c[nH]c([C@@H](NC(=O)[C@H](O)C(F)(F)F)C(C)(C)C)n4)cc3)cc2)c[nH]1 [Compound L-81] | >100
19 | COC(C)(C)C(=O)N[C@H](c1nc(-c2ccc(-c3ccc(-c4c[nH]c([C@@H](NC(=O)C(C)(C)OC)C(C)(C)C)n4)c(F)c3)cc2)c[nH]1)C(C)(C)C [Compound N-94] | >100

Row | Structure (SMILES) | Fold-Synergistic 1a (Q30E) [fold]
20 | CC1([C@H](NC(=O)[C@@]2(C)CC(F)(F)CCO2)c2nc(-c3ccc(-c4ccc(-c5c[nH]c([C@@H](NC(=O)[C@@]6(C)CC(F)(F)CCO6)C6(C)CC6)n5)cc4)cc3)c[nH]2)CC1 [Compound Y-82] | >100
21 | CC1(C(=O)N[C@H](c2nc(-c3ccc(-c4ccc(-c5c[nH]c([C@@H](NC(=O)C6(C)CC7C=CC6C7)C(C)(C)C)n5)cc4)cc3)c[nH]2)C(C)(C)C)CC2C=CC1C2 (stereo partly shown) [Compound S-298] | >100
22 | CC(C)(C)[C@H](NC(=O)C1(C2(O)CCOCC2)CCC1)c1ncc(-c2ccc(-c3ccc(-c4cnc([C@@H](NC(=O)C5(C6(O)CCOCC6)CCC5)C(C)(C)C)[nH]4)cc3)cc2)[nH]1 [Compound B84] | >100
23 | O=C(C1CCCCCC1)N1CCC[C@H]1c1ncc(-c2ccc(-c3ccc(-c4cnc([C@@H]5CCCN5C(=O)C5CCCCCC5)[nH]4)cc3)cc2)[nH]1 [Compound S-176] | >10
24 | CC(C)(C)[C@H](NCC1CCCCC1)c1nc(-c2ccc(-c3ccc(-c4c[nH]c([C@@H](NCC5CCCCC5)C(C)(C)C)n4)cc3)cc2)c[nH]1 [Compound L-2] | >100
25 | CC(C)(C)[C@H](NC(=O)[C@@H]1CCCO1)c1nc(-c2ccc(-c3ccc(-c4c[nH]c([C@@H](NC(=O)[C@@H]5CCCO5)C(C)(C)C)n4)cc3)cc2)c[nH]1 [Compound L-65] | >100
26 | CC(C)(C)[C@H](NC(=O)[C@H]1CC[C@@](C)(O)CC1)c1nc(-c2ccc(-c3ccc(-c4c[nH]c([C@@H](NC(=O)[C@H]5CC[C@@](C)(O)CC5)C(C)(C)C)n4)cc3)cc2)c[nH]1 [Compound W-175] | >100
27 | CC(C)[C@H](NC(=O)C(C)(C)OCC(F)F)c1nc(-c2ccc(-c3ccc(-c4c[nH]c([C@@H](NC(=O)C(C)(C)OCC(F)F)C(C)C)n4)c(F)c3)cc2)c[nH]1 [Compound N-91] | >100
28 | CC(C)(C)[C@H](NC(=O)C1CCCOC1)c1nc(-c2ccc(-c3ccc(-c4c[nH]c([C@@H](NC(=O)C5CCCOC5)C(C)(C)C)n4)cc3)cc2)c[nH]1 (stereo partly shown) [Compound W-131] | >100
29 | CC(C)[C@H](NC(=O)C(=O)N1CCC(F)(F)CC1)c1nc(-c2ccc(-c3ccc(-c4c[nH]c([C@@H](NC(=O)C(=O)N5CCC(F)(F)CC5)C(C)C)n4)cc3)cc2)c[nH]1 [Compound W-51] | >100
30 | CC(=O)N1CCC(C(=O)N[C@H](c2nc(-c3ccc(-c4ccc(-c5c[nH]c([C@@H](NC(=O)C6CCN(C(C)=O)CC6)C(C)(C)C)n5)cc4)cc3)c[nH]2)C(C)(C)C)CC1 [Compound S-297] | >10
31 | CC(C)(C)OC(=O)N1C[C@H]2CC2[C@H]1C(=O)N[C@H](c1nc(-c2ccc(-c3ccc(-c4c[nH]c([C@@H](NC(=O)[C@@H]5C6C[C@@H]6CN5C(=O)OC(C)(C)C)C5(C)CC5)n4)cc3)cc2)c[nH]1)C1(C)CC1 (stereo partly shown) [Compound W-75] | >100
32 | C[C@@H]1CN(C(=O)C(=O)N[C@H](c2nc(-c3ccc(-c4ccc(-c5c[nH]c([C@@H](NC(=O)C(=O)N6C[C@@H](C)O[C@@H](C)C6)C6(C)CC6)n5)cc4)cc3)c[nH]2)C2(C)CC2)C[C@H](C)O1 [Compound W-61] | >100
33 | CC(C)(C)OC(=O)NC1(C(=O)N[C@H](c2nc(-c3ccc(-c4ccc(-c5c[nH]c([C@@H](NC(=O)C6(NC(=O)OC(C)(C)C)CCC(F)(F)CC6)C(C)(C)C)n5)cc4)cc3)c[nH]2)C(C)(C)C)CCC(F)(F)CC1 [Compound L-49] | >100
34 | O=C(c1ccc2c(c1)OCO2)N1CCC[C@H]1c1ncc(-c2ccc(-c3ccc(-c4cnc([C@@H]5CCCN5C(=O)c5ccc6c(c5)OCO6)[nH]4)cc3)cc2)[nH]1 [Compound S-121] | <10
35 | CC(C)(C)OC(=O)N[C@]1(C(=O)N[C@H](c2nc(-c3ccc(-c4ccc(-c5c[nH]c([C@@H](NC(=O)[C@@]6(NC(=O)OC(C)(C)C)C[C@H]6C6CC6)C(C)(C)C)n5)cc4)cc3)c[nH]2)C(C)(C)C)C[C@H]1C1CC1 [Compound W-3] | >100
36 | CC(C)(C(=O)NCC(F)(F)F)C(=O)N[C@H](c1nc(-c2ccc(-c3ccc(-c4c[nH]c([C@@H](NC(=O)C(C)(C)C(=O)NCC(F)(F)F)C(C)(C)C)n4)cc3)cc2)c[nH]1)C(C)(C)C [Compound W-139] | >100
37 | Cc1ccc(C2(C(=O)N3CCC[C@H]3c3ncc(-c4ccc(-c5ccc(-c6cnc([C@@H]7CCCN7C(=O)C7(c8ccc(C)cc8)CCCC7)[nH]6)cc5)cc4)[nH]3)CCCC2)cc1 [Compound S-152] | <10

same assay, conditions: Hepatitis C virus; genotype 1a Q30E replicon; BMS-790052 fixed at 200 nM; read-out: EC50 of P-55 in the presence of a fixed amount of BMS-790052

Row | Structure (SMILES) | pEC50
38 | CC(C)CC(=O)N[C@H](c1ncc(-c2ccc(-c3ccc(-c4cnc([C@@H](NC(=O)CC(C)C)C(C)C)[nH]4)cc3)cc2)[nH]1)C(C)C [Compound P-55] | ~8.70

same assay, conditions: Hepatitis C virus; genotype 1a Q30E replicon; compound alone; read-out: EC50, titrated singly

Row | Structure (SMILES) | pEC50
39 | CC(C)CC(=O)N[C@H](c1ncc(-c2ccc(-c3ccc(-c4cnc([C@@H](NC(=O)CC(C)C)C(C)C)[nH]4)cc3)cc2)[nH]1)C(C)C [Compound P-55] | < 6.70

same assay, conditions: genotype 1a Q30E replicon; P-55 titrated with 200 nM BMS-790052

Row | Structure (SMILES) | synergistic inhibitory effect with the combination [fold]
40 | CC(C)CC(=O)N[C@H](c1ncc(-c2ccc(-c3ccc(-c4cnc([C@@H](NC(=O)CC(C)C)C(C)C)[nH]4)cc3)cc2)[nH]1)C(C)C [Compound P-55] | > 100
